The text below walks through data of ChEMBL document CHEMBL3217519, “A self-immolative dendritic glucuronide prodrug of doxorubicin” (Medchemcomm, 2012).

Calls of active or inactive are those of the source. No cut-off for these calls is given here.

The subject of data set [1] is NCI-H661. In words: Antiproliferative activity against human NCI-H661 cells assessed as inhibition of cell viability after 3 days by XTT assay in presence of beta-glucuronidase. Type of data set: functional, cell-based. Particulars: NCI-H661, 72 h. A general note: Tetrazolium assays rely on reduction of a dye to a coloured formazan, in cell work by metabolically active cells.

The subject of data set [2] is NCI-H661. In words: Antiproliferative activity against human NCI-H661 cells assessed as inhibition of cell viability at 1000 nM after 3 days by XTT assay. Type of data set: functional, cell-based.
Data set [3] addresses Beta-glucuronidase (Escherichia coli (strain K12), UniProt P05804). In words: Prodrug activation in phosphate buffer assessed as Escherichia coli beta-glucuronidase-catalysed release of doxorubicin at 0.06 umol at pH 7 after 6 hrs by HPLC analysis. Particulars: isolated protein, pH 7, 6 h.
Data set [4] relates to Serum. In words: Stability of the compound in bovine serum assessed as drug degradation at 37 degC measured for 24 hrs. The class given is ADME, Bos taurus. Particulars: cattle.
In data set [5] the test system is NCI-H661. The data set is described as follows: Ratio of HMR1826 IC50 to compound IC50 for human NCI-H661 cells in presence of beta-glucuronidase. Type of data set: functional.
Data set [6] can be described thus: Stability of the compound in 0.02M phosphate buffer assessed as drug decomposition at 0.06 umol at pH 7 after 10 days by HPLC analysis. Type of data set: physicochemical. As to conditions: pH 7, 240 h.

Sequence of Beta-glucuronidase (P05804 whole entry): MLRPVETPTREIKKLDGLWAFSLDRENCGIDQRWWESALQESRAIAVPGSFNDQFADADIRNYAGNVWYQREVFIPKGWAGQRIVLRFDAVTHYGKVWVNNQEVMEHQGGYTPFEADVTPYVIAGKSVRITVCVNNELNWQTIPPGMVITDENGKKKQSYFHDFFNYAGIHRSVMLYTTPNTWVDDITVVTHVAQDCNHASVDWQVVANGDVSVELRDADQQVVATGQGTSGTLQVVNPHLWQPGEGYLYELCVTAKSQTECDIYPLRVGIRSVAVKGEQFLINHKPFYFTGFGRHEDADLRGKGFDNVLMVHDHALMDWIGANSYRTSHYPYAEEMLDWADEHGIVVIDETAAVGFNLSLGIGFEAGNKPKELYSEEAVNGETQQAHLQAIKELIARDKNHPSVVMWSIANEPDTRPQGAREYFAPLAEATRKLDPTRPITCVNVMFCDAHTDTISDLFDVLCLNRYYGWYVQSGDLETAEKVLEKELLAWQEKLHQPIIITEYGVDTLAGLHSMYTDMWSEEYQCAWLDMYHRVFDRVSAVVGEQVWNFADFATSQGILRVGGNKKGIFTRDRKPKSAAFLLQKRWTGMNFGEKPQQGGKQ

As a reminder, the IC50 is the concentration that gives 50% inhibition. On to `COc1cccc2c1C(=O)c1c(O)c3c(c(O)c1C2=O)C[C@@](O)(C(=O)CO)C[C@@H]3O[C@H]1C[C@H](N)[C@H](O)[C@H](C)O1` [DOXORUBICIN], for which the IC50 in data set [1] worked out at 250 nM.

Turning to `COc1cccc2c1C(=O)c1c(O)c3c(c(O)c1C2=O)C[C@@](O)(C(=O)CO)C[C@@H]3O[C@H]1C[C@H](NC(=O)OCc2ccc(O[C@@H]3O[C@H](C(=O)O)[C@@H](O)[C@H](O)[C@H]3O)c([N+](=O)[O-])c2)[C@H](O)[C@H](C)O1`, the half-maximal inhibitory concentration (IC50) in data set [1] was 280 nM.

Consider `COc1cccc2c1C(=O)c1c(O)c3c(c(O)c1C2=O)C[C@@](O)(C(=O)CO)C[C@@H]3O[C@H]1C[C@H](NC(=O)OCc2ccc(NC(=O)OCc3ccc(O[C@@H]4O[C@H](C(=O)O)[C@@H](O)[C@H](O)[C@H]4O)c([N+](=O)[O-])c3)c(COC(=O)N[C@H]3C[C@H](O[C@H]4C[C@](O)(C(=O)CO)Cc5c(O)c6c(c(O)c54)C(=O)c4c(OC)cccc4C6=O)O[C@@H](C)[C@H]3O)c2)[C@H](O)[C@H](C)O1`, for which the IC50 in data set [1] was 110 nM. Further, the inhibition entry in data set [2] is “inactive”. Further, the Drug metabolism entry in data set [3] is reported as “Active”. Further, the Stability entry in data set [4] and in data set [6] was “Stable” each time. Also, the “Ratio IC50” value in data set [5] worked out at 2.
